These molecules were tested against human Nav 1.8 (Homo sapiens, UniProt Q9Y5Y9) (assay: E-VIPR assay detecting and measuring Nav inhibition properties). Details: HEK cells expressing a truncated form of human Nav 1.8; compound numbers without "*" (not marked as run in the presence of human serum); read-out: measured IC50 value in the E-VIPR Assay.
Format: cell-based
Summary of the method: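 Nav inhibition was read by E-VIPR: cells were electrically stimulated while coumarin/oxonol FRET emissions were recorded. Cells were HEK expressing a truncated human Nav 1.8 and co-transduced with KIR2.1, and were assayed in 25% final human serum.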

Sequence of human Nav 1.8 (Q9Y5Y9 126-399 limits assumed): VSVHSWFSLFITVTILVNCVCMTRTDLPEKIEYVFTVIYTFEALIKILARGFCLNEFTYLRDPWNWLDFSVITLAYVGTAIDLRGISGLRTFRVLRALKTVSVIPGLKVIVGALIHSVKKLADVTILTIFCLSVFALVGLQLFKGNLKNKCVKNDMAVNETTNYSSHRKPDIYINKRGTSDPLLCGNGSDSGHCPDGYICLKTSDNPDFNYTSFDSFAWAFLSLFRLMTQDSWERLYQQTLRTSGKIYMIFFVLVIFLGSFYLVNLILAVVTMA
Sequence of human Nav 1.8 (Q9Y5Y9 660-890 limits assumed): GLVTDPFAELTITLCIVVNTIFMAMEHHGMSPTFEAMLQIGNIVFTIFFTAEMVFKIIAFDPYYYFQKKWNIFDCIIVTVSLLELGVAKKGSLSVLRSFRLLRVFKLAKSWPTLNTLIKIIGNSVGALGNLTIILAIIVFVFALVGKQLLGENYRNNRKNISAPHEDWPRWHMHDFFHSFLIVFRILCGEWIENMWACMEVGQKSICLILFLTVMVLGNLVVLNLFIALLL
Sequence of human Nav 1.8 (Q9Y5Y9 1148-1722 limits assumed): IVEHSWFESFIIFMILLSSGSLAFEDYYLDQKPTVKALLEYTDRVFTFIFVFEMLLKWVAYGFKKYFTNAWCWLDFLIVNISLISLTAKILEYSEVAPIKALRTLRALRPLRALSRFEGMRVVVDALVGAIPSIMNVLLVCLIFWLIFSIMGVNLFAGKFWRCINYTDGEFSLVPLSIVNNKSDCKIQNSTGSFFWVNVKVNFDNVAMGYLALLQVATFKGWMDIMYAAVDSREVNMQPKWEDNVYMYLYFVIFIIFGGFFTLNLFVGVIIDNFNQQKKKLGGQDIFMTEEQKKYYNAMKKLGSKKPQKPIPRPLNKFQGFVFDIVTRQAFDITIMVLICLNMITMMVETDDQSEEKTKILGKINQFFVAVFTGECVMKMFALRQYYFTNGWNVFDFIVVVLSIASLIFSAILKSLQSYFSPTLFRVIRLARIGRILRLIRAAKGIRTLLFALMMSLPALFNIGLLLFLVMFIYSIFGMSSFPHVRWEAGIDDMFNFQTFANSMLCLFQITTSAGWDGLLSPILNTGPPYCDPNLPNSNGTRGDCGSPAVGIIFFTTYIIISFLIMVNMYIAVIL

SMILES | IC50
COc1c([C@H]2[C@H](C(=O)Nc3ccnc(C(=O)N4CC5(CN(C)C5)C4)c3)O[C@@](C)(C(F)(F)F)[C@H]2C)ccc(F)c1F [Compound 268, (2R,3S,4S,5R)-3-(3,4-difluoro-2-methoxyphenyl)-4,5-dimethyl-N-(2-(6-methyl-2,6-diazaspiro[3.3]heptane-2-carbonyl)pyridin-4-yl)-5-(trifluoromethyl)tetrahydrofuran-2-carboxamide] | < 10 nM
COCc1c(F)ccc([C@H]2[C@H](C(=O)Nc3ccnc(C(N)=O)c3)O[C@@](C)(C(F)(F)F)[C@H]2C)c1OC (single isomer, unassigned) [Compound 140] | < 10 nM
COc1c([C@H]2[C@H](C(=O)Nc3ccnc(C(=O)N4CCN(C)C[C@H]4C)c3)O[C@@](C)(C(F)(F)F)[C@H]2C)ccc(F)c1F [Compound 274, (2R,3S,4S,5R)-3-(3,4-difluoro-2-methoxyphenyl)-N-(2-((R)-2,4-dimethylpiperazine-1-carbonyl)pyridin-4-yl)-4,5-dimethyl-5-(trifluoromethyl)tetrahydrofuran-2-carboxamide] | < 10 nM
CC1C(c2ccc(F)c(F)c2OCC2CC(C)(O)C2)C(C(=O)Nc2ccnc(C(N)=O)c2)OC1(C)C(F)(F)F [Compound 199, rel-4-((2R*,3S*,4S*,5R*)-3-(3,4-difluoro-2-(((1r,3S)-3-hydroxy-3-methylcyclobutyl)methoxy)phenyl)-4,5-dimethyl-5-(trifluoromethyl)tetrahydrofuran-2-carboxamido)picolinamide] | 10 to 100 nM
CC1C(c2ccc(F)c(F)c2OCC2CC(C)(O)C2)C(C(=O)Nc2ccnc(C(N)=O)c2)OC1(C)C(F)(F)F (single isomer, unassigned) [Compound 200, rel-4-((2R*,3S*,4S*,5R*)-3-(3,4-difluoro-2-(((1s,3R)-3-hydroxy-3-methylcyclobutyl)methoxy)phenyl)-4,5-dimethyl-5-(trifluoromethyl)tetrahydrofuran-2-carboxamido)picolinamide] | 10 to 100 nM
C[C@H]1[C@@H](c2ccc(F)c(F)c2OC2CC(F)(F)C2)[C@H](C(=O)Nc2ccnc(C(N)=O)c2)O[C@@]1(C)C(F)(F)F [Compound 173, 4-((2R,3S,4S,5R)-3-(2-(3,3-difluorocyclobutoxy)-3,4-difluorophenyl)-4,5-dimethyl-5-(trifluoromethyl)tetrahydrofuran-2-carboxamido)picolinamide] | < 10 nM

Reference: US20250213555A1, “SUBSTITUTED TETRAHYDROFURAN ANALOGS AS MODULATORS OF SODIUM CHANNELS” (VERTEX PHARMACEUTICALS INCORPORATED, priority 2021, published 2025)
